Source: US20250382305A1 (PTC THERAPEUTICS, INC., priority 2022, published 2025)

How the values were obtained:
[1] = test system: Total ATXN3 (tATXN3) protein; test: Endogenous Total ATXN3 (tATXN3) Protein Assay (MSD immunoassay of cell lysates); assay type: cell-based; settings: average IC50, total ATXN3 protein in cell lysate after 48 h with compound (Table 1)
Procedure, shortened: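 By electrochemiluminescent MSD sandwich immunoassay (mouse monoclonal capture, rabbit monoclonal and SULFO-TAG anti-rabbit detection), endogenous ATXN3 was quantified in lysates of cells treated 48 h at 37° C at 10,000 cells/well. Treatment used a 7-point 3.16-fold duplicate dilution series, with average IC50 grouped into star categories.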

[2] = test system: ATXN3 pre-mRNA; test: RT-qPCR Assay to Quantify Exon 4 Skipping in ATXN3 pre-mRNA in Cells; assay type: cell-based; settings: percent exon 4 skipping in ATXN3 pre-mRNA, RT-qPCR of cell lysates; average IC50
Procedure, shortened: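 IC50 derives from a dose-response fit of percent exon 4 skipping, quantified by RT-qPCR on crude lysates. Compounds tested as 7-point 3.16-fold dilutions in duplicate; cells (10,000/well) were exposed for 24 h at 37 °C before lysis.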

Compound | IC50 [1] [nM] | IC50 [2] [nM]
N[C@@H]1CCCC[C@H]1c1sc2c(NCc3ccccc3)cc(Cl)nc2c1Cl [Compound 368, 2-((1R,2R)-2-aminocyclohexyl)-N-benzyl-3,5-dichlorothieno[3,2-b]pyridin-7-amine] | 30 to 300 | 30 to 300
6-((1R,2R)-2-aminocyclohexyl)-N-benzyl-2-chloro-7-methylthieno[3,2-d]pyrimidin-4-amine or 6-((1S,2S)-2-aminocyclohexyl)-N-benzyl-2-chloro-7-methylthieno[3,2-d]pyrimidin-4-amine [Compound 43] | > 1000 | > 1000
N[C@H]1CC=CC[C@@H]1c1sc2c(NCc3cccs3)cc(Cl)nc2c1C#Cc1ccncc1 [Compound 395, 2-((1S,6S)-6-aminocyclohex-3-en-1-yl)-5-chloro-3-(pyridin-4-ylethynyl)-N-(thiophen-2-ylmethyl)thieno[3,2-b]pyridin-7-amine] | 300 to 1000 | 30 to 300
N[C@@H]1CCCC[C@@H]1c1sc2c(NCc3cccs3)cc(Cl)nc2c1Cl [Compound 14, 2-((1S,2R)-2-aminocyclohexyl)-3,5-dichloro-N-(thiophen-2-ylmethyl)thieno[3,2-b]pyridin-7-amine] | > 1000 | > 1000
N[C@H]1CCCO[C@@H]1c1c(Cl)c2nc(Cl)nc(NCc3ccco3)c2n1C(F)F [Compound 244, 6-((2S,3S)-3-aminotetrahydro-2H-pyran-2-yl)-2,7-dichloro-5-(difluoromethyl)-N-(furan-2-ylmethyl)-5H-pyrrolo[3,2-d]pyrimidin-4-amine] | ≤ 30 | ≤ 30
N[C@H]1CC=CC[C@@H]1c1sc2c(NCc3ccccc3F)cc(Cl)nc2c1Br [Compound 287, 2-((1S,6S)-6-aminocyclohex-3-en-1-yl)-3-bromo-5-chloro-N-(2-fluorobenzyl)thieno[3,2-b]pyridin-7-amine] | 30 to 300 | 30 to 300
6-((2S,3S)-3-aminotetrahydro-2H-pyran-2-yl)-N-benzyl-2,7-dichloro-5-(difluoromethyl)-5H-pyrrolo[3,2-d]pyrimidin-4-amine and 6-((2R,3R)-3-aminotetrahydro-2H-pyran-2-yl)-N-benzyl-2,7-dichloro-5-(difluoromethyl)-5H-pyrrolo[3,2-d]pyrimidin-4-amine [Compound 392] | 300 to 1000 | 30 to 300
CN(Cc1ccco1)c1cc(Cl)nc2c(C#CCCCO)c([C@@H]3CC=CC[C@H]3N)sc12 [Compound 452, 5-(2-((1R,6R)-6-aminocyclohex-3-en-1-yl)-5-chloro-7-((furan-2-ylmethyl)(methyl)amino)thieno[3,2-b]pyridin-3-yl)pent-4-yn-1-ol] | 30 to 300 | 30 to 300
N[C@@H]1CC=CC[C@H]1c1sc2c(NCc3cccs3)nc(Cl)nc2c1Cl.N[C@H]1CC=CC[C@@H]1c1sc2c(NCc3cccs3)nc(Cl)nc2c1Cl (mixture of isomers) [Compound 240, 6-((1R,6R)-6-aminocyclohex-3-en-1-yl)-2,7-dichloro-N-(thiophen-2-ylmethyl)thieno[3,2-d]pyrimidin-4-amine and 6-((1S,6S)-6-aminocyclohex-3-en-1-yl)-2,7-dichloro-N-(thiophen-2-ylmethyl)thieno[3,2-d]pyrimidin-4-amine] | ≤ 30 | ≤ 30
2-((2R,3R)-3-aminotetrahydro-2H-pyran-2-yl)-3-bromo-5-chloro-1-(difluoromethyl)-N-(thiophen-2-ylmethyl)-1H-pyrrolo[3,2-b]pyridin-7-amine and 2-((2S,3S)-3-aminotetrahydro-2H-pyran-2-yl)-3-bromo-5-chloro-1-(difluoromethyl)-N-(thiophen-2-ylmethyl)-1H-pyrrolo[3,2-b]pyridin-7-amine [Compound 224] | ≤ 30 | ≤ 30
N[C@@H]1CCCO[C@H]1c1sc2c(NCc3ccco3)nc(Cl)nc2c1C#CCO.N[C@H]1CCCO[C@@H]1c1sc2c(NCc3ccco3)nc(Cl)nc2c1C#CCO (mixture of isomers) [Compound 255, 3-(6-((2R,3R)-3-aminotetrahydro-2H-pyran-2-yl)-2-chloro-4-((furan-2-ylmethyl)amino)thieno[3,2-d]pyrimidin-7-yl)prop-2-yn-1-ol and 3-(6-((2S,3S)-3-aminotetrahydro-2H-pyran-2-yl)-2-chloro-4-((furan-2-ylmethyl)amino)thieno[3,2-d]pyrimidin-7-yl)prop-2-yn-1-ol] | 30 to 300 | ≤ 30
2-((1R,6R)-6-aminocyclohex-3-en-1-yl-2,2,3,4,5,5-d6)-3,5-dichloro-N-(furan-2-ylmethyl)thieno[3,2-b]pyridin-7-amine and 2-((1S,6S)-6-aminocyclohex-3-en-1-yl-2,2,3,4,5,5-d6)-3,5-dichloro-N-(furan-2-ylmethyl)thieno[3,2-b]pyridin-7-amine [Compound 180] | ≤ 30 | ≤ 30
N[C@H]1CC=CC[C@@H]1c1sc2c(NCc3cccs3)cc(Cl)nc2c1C#CCCCCO [Compound 235, 6-(2-((1S,6S)-6-aminocyclohex-3-en-1-yl)-5-chloro-7-((thiophen-2-ylmethyl)amino)thieno[3,2-b]pyridin-3-yl)hex-5-yn-1-ol] | ≤ 30 | ≤ 30
N[C@@H]1CCC[C@H]1c1sc2c(NCc3cccs3)cc(Cl)nc2c1-c1ccccc1 [Compound 135, 2-((1R,2R)-2-aminocyclopentyl)-5-chloro-3-phenyl-N-(thiophen-2-ylmethyl)thieno[3,2-b]pyridin-7-amine] | > 1000 | > 1000
N[C@H]1CC=CC[C@@H]1c1sc2c(NCc3ccco3)cc(Cl)nc2c1Br [Compound 206, 2-((1S,6S)-6-aminocyclohex-3-en-1-yl)-3-bromo-5-chloro-N-(furan-2-ylmethyl)thieno[3,2-b]pyridin-7-amine] | ≤ 30 | ≤ 30
Cn1c([C@@H]2CCOC[C@H]2N)c(Br)c2nc(Cl)cc(NCc3cccs3)c21 [Compound 384, 2-((3S,4R)-3-aminotetrahydro-2H-pyran-4-yl)-3-bromo-5-chloro-1-methyl-N-(thiophen-2-ylmethyl)-1H-pyrrolo[3,2-b]pyridin-7-amine] | 30 to 300 | 30 to 300
CCOC(=O)C1=CC[C@@H](c2sc3c(NCc4cccs4)cc(Cl)nc3c2C)[C@@H](N)C1 [Compound 445, ethyl (4R,5S)-5-amino-4-(5-chloro-3-methyl-7-((thiophen-2-ylmethyl)amino)thieno[3,2-b]pyridin-2-yl)cyclohex-1-ene-1-carboxylate] | 300 to 1000 | 300 to 1000
N[C@@H]1CC=CC[C@H]1c1sc2c(NCc3ccccc3)cc(Cl)nc2c1Cl [Compound 404, 2-((1R,6R)-6-aminocyclohex-3-en-1-yl)-N-benzyl-3,5-dichlorothieno[3,2-b]pyridin-7-amine] | 30 to 300 | 30 to 300
N[C@H]1CCCC[C@@H]1c1sc2c(NCc3ccncc3)cc(Cl)nc2c1Br [Compound 197, 2-((1S,2S)-2-aminocyclohexyl)-3-bromo-5-chloro-N-(pyridin-4-ylmethyl)thieno[3,2-b]pyridin-7-amine] | ≤ 30 | ≤ 30
(2-((1S,2S)-2-aminocyclohexyl)-5-chloro-7-((thiophen-2-ylmethyl)amino)thieno[3,2-b]pyridin-3-yl)methanol and (2-((1R,2R)-2-aminocyclohexyl)-5-chloro-7-((thiophen-2-ylmethyl)amino)thieno[3,2-b]pyridin-3-yl)methanol [Compound 360] | 30 to 300 | 30 to 300
N[C@H]1CCCO[C@@H]1c1sc2c(NCc3ccncc3)cc(Cl)nc2c1Br [Compound 251, 2-((2S,3S)-3-aminotetrahydro-2H-pyran-2-yl)-3-bromo-5-chloro-N-(pyridin-4-ylmethyl)thieno[3,2-b]pyridin-7-amine] | 30 to 300 | ≤ 30
N[C@H]1CCCC[C@@H]1c1sc2c(NCc3ccco3)cc(Cl)nc2c1Cl [Compound 173, 2-((1S,2S)-2-aminocyclohexyl)-3,5-dichloro-N-(furan-2-ylmethyl)thieno[3,2-b]pyridin-7-amine] | ≤ 30 | ≤ 30
[2H]C1=C([2H])C([2H])([2H])[C@@H](c2sc3c(NCc4ccco4)nc(Cl)nc3c2C)[C@H](N)C1([2H])[2H] [Compound 449, 6-((1R,6R)-6-aminocyclohex-3-en-1-yl-2,2,3,4,5,5-d6)-2-chloro-N-(furan-2-ylmethyl)-7-methylthieno[3,2-d]pyrimidin-4-amine] | 30 to 300 | 300 to 1000
N[C@H]1CCC[C@@H]1c1sc2c(NCc3ccccc3)cc(Cl)nc2c1Br [Compound 166, 2-((1S,2S)-2-aminocyclopentyl)-N-benzyl-3-bromo-5-chlorothieno[3,2-b]pyridin-7-amine] | 30 to 300 | 30 to 300
Cc1c([C@@H]2OCCC[C@H]2N)sc2c(NCc3ccccc3)cc(Cl)nc12 [Compound 109, 2-((2R,3R)-3-aminotetrahydro-2H-pyran-2-yl)-N-benzyl-5-chloro-3-methylthieno[3,2-b]pyridin-7-amine] | 30 to 300 | 30 to 300
N[C@H]1CCC[C@]1(F)c1sc2c(NCc3ccco3)cc(Cl)nc2c1Cl [Compound 121, 2-((1R,2S)-2-amino-1-fluorocyclopentyl)-3,5-dichloro-N-(furan-2-ylmethyl)thieno[3,2-b]pyridin-7-amine] | > 1000 | > 1000
N[C@@H]1CC=CC[C@H]1c1sc2c(NCc3nccs3)cc(Cl)nc2c1Cl [Compound 380, 2-((1R,6R)-6-aminocyclohex-3-en-1-yl)-3,5-dichloro-N-(thiazol-2-ylmethyl)thieno[3,2-b]pyridin-7-amine] | 30 to 300 | 30 to 300
